Measurements: EP4389749A1, “SUBSTITUTED 3,7-DIHYDRO-1H-PURINE-2,6-DIONES AND USE THEREOF” (invIOs GmbH, priority 2022, dated 2024)

Experiments:
CD8+ T-cells = assay: Immunostimulation assay with anti-CD3/28 stimulated T-cells, CD69 expression by flow cytometry; assay type: cell-based, human; settings: T-cell; purified human CD4+ and CD8+ T-cells, 1 µg/ml anti-CD3, 1 µg/ml anti-CD28, 16 hours, surface FACS; read-out: EC50 CD8+
Description: (§1) Selection of potent compounds based on structure activity relation (SAR) using human, anti-CD3/28 stimulated T-cells. Enhanced activation of stimulated T-cells is measured by CD69 expression by flowcytometry.
(§2) White blood cell enriched buffy coats were ordered from the Austrian red cross, diluted with PBS to a total volume of 480 ml, 30 ml transferred to 50ml falcons and 11 ml lymphoprep added. Cell suspensions were centrifuged for 20 min at 2200 rpm and the PBMC containing layer transferred, three times washed with PBS and counted.
(§3) 10^7 PBMCs were magnetically labeled with CD4 and CD8 microbeads according to manufacturer's instructions and separated using autoMACS device. For dose response experiments with purified CD4+CD8+ T-cells 80000 cells were seeded per 96-well flat bottom cell culture dish.
(§4) 10 mM compounds of the invention stocks were further diluted using DMSO and equal amounts transferred to T-cell containing 96-wells. Final concentrations tested were: 30 µM, 10 µM, 3 µM, 1 µM, 0.3 µM, 0.1 µM, 0.03 µM, 0.01 µM, 0.003 µM and 0.001 µM.
(§5) For the stimulation assays 80.000 purified CD4+ and CD8+ T-cells were seeded per 96-well and incubated with 1 µg/ml anti-CD3, 1 µg/ml anti-CD28 and compounds of the invention ranging from 0.001 µM to 30 µM. DMSO only wells served as control to determine minimal T-cell activation upon stimulation and CD3/28 coupled Dynabeads were used to determine the maximal activation of T-cells. Cells were cultured for 16 hours in a humidified incubator at 37 °C and 5 % CO2.
(§6) T-cells were stained for surface antigens (anti-CD4 and anti-CD8) and cell activation markers (anti-CD25 and anti-CD69). Additionally, a fixable viability dye was used to stain viable cells. Staining was performed for 15 minutes and cells analyzed using a Fortessa flow cytometer and FlowJo Software. EC50s were calculated using GraphPad Prism® and a variable slope model (agonist vs. response - variable slope).

CD4+ T-cells = assay: as above; assay type: cell-based, human; settings: T-cell; purified human CD4+ and CD8+ T-cells, 1 µg/ml anti-CD3, 1 µg/ml anti-CD28, 16 hours, surface FACS; read-out: EC50 CD4+
Description: as §1, §2, §3, §4, §5, §6

| EC50 (CD8+ T-cells) [nM] | EC50 (CD4+ T-cells) [nM] | SMILES |
| --- | --- | --- |
| 100 to 500 | 100 to 500 | COc1cc(-c2nc3c(c(=O)[nH]c(=O)n3CC(C)CO)n2C)ccc1OCc1ccc(C(F)F)cc1 (stereo not shown) [Compound 74, 8-(4-((4-(difluoromethyl)benzyl)oxy)-3-methoxyphenyl)-3-(3-hydroxy-2-methylpropyl)-7-methyl-3,7-dihydro-1H-purine-2,6-dione] |
| 100 to 500 | 100 to 500 | COc1cc(-c2nc3c(c(=O)[nH]c(=O)n3CC(O)C(F)(F)F)n2C)ccc1OCc1ccc(C(F)F)cc1 (stereo not shown) [Compound 75, 8-(4-((4-(difluoromethyl)benzyl)oxy)-3-methoxyphenyl)-7-methyl-3-(3,3,3-trifluoro-2-hydroxypropyl)-3,7-dihydro-1H-purine-2,6-dione] |
| < 100 | < 100 | Cc1ccc(COc2ccc(-c3nc4c(c(=O)[nH]c(=O)n4CC(C)O)n3C)cc2OC(F)F)cc1 (stereo not shown) [Compound 76, 8-(3-(difluoromethoxy)-4-((4-methylbenzyl)oxy)phenyl)-3-(2-hydroxypropyl)-7-methyl-3,7-dihydro-1H-purine-2,6-dione] |
| 100 to 500 | 500 to 1000 | Cc1ccc(COc2ccc(-c3nc4c(c(=O)[nH]c(=O)n4CC(C)O)n3C)cc2)cc1 (stereo not shown) [Compound 77, 3-(2-hydroxypropyl)-7-methyl-8-(4-((4-methylbenzyl)oxy)phenyl)-3,7-dihydro-1H-purine-2,6-dione] |
| 100 to 500 | 500 to 1000 | CC(O)Cn1c(=O)[nH]c(=O)c2c1nc(-c1ccc(OCc3ccccc3)cc1)n2C (stereo not shown) [Compound 78, 8-(4-(benzyloxy)phenyl)-3-(2-hydroxypropyl)-7-methyl-3,7-dihydro-1H-purine-2,6-dione] |
| 100 to 500 | 100 to 500 | COc1cc(-c2nc3c(c(=O)[nH]c(=O)n3CC(O)C(F)F)n2C)ccc1OCc1ccc(C(F)F)cc1 (stereo not shown) [Compound 79, 3-(3,3-difluoro-2-hydroxypropyl)-8-(4-((4-(difluoromethyl)benzyl)oxy)-3-methoxyphenyl)-7-methyl-3,7-dihydro-1H-purine-2,6-dione] |
| < 100 | < 100 | Cc1ccc(COc2ccc(-c3nc4c(c(=O)[nH]c(=O)n4CC(O)C(F)F)n3C)cc2F)cc1 (stereo not shown) [Compound 80, 3-(3,3-difluoro-2-hydroxypropyl)-8-(3-fluoro-4-((4-methylbenzyl)oxy)phenyl)-7-methyl-3,7-dihydro-1H-purine-2,6-dione] |
| < 100 | 100 to 500 | CC(O)Cn1c(=O)[nH]c(=O)c2c1nc(-c1ccc(Oc3ccc(Cl)cc3)c(OC(F)F)c1)n2C (stereo not shown) [Compound 81, 8-(4-(4-chlorophenoxy)-3-(difluoromethoxy)phenyl)-3-(2-hydroxypropyl)-7-methyl-3,7-dihydro-1H-purine-2,6-dione] |
| 100 to 500 | 100 to 500 | COc1cc(-c2nc3c(c(=O)[nH]c(=O)n3CC(C)O)n2C)ccc1OCc1ccc(OC(F)(F)F)cc1 (stereo not shown) [Compound 82, 3-(2-hydroxypropyl)-8-(3-methoxy-4-((4-(trifluoromethoxy)benzyl)oxy)phenyl)-7-methyl-3,7-dihydro-1H-purine-2,6-dione] |
| < 100 | < 100 | COc1cc(-c2nc3c(c(=O)[nH]c(=O)n3CC(O)C(F)F)n2C)ccc1OCc1ccc(OC(F)F)cc1 (stereo not shown) [Compound 83, 3-(3,3-difluoro-2-hydroxypropyl)-8-(4-((4-(difluoromethoxy)benzyl)oxy)-3-methoxyphenyl)-7-methyl-3,7-dihydro-1H-purine-2,6-dione] |
| < 100 | 100 to 500 | COc1cc(-c2nc3c(c(=O)[nH]c(=O)n3CC(O)C(F)F)n2C)ccc1OCc1ccc(F)cc1 (stereo not shown) [Compound 84, 3-(3,3-difluoro-2-hydroxypropyl)-8-(4-((4-fluorobenzyl)oxy)-3-methoxyphenyl)-7-methyl-3,7-dihydro-1H-purine-2,6-dione] |
| 100 to 500 | 100 to 500 | COc1cc(-c2nc3c(c(=O)[nH]c(=O)n3CC(C)O)n2C)ccc1OCc1ccc(OC(F)F)cc1 (stereo not shown) [Compound 85, 8-(4-((4-(difluoromethoxy)benzyl)oxy)-3-methoxyphenyl)-3-(2-hydroxypropyl)-7-methyl-3,7-dihydro-1H-purine-2,6-dione] |
| 100 to 500 | 100 to 500 | COc1cc(-c2nc3c(c(=O)[nH]c(=O)n3CC(C)O)n2C)ccc1OCc1ccc(C(F)F)cc1 (stereo not shown) [Compound 86, 8-(4-((4-(difluoromethyl)benzyl)oxy)-3-methoxyphenyl)-3-(2-hydroxypropyl)-7-methyl-3,7-dihydro-1H-purine-2,6-dione] |
| 100 to 500 | 500 to 1000 | COc1cc(-c2nc3c(c(=O)[nH]c(=O)n3CC(C)O)n2C)ccc1OCc1ccc(F)cc1 (stereo not shown) [Compound 87, 8-(4-((4-fluorobenzyl)oxy)-3-methoxyphenyl)-3-(2-hydroxypropyl)-7-methyl-3,7-dihydro-1H-purine-2,6-dione] |
| 100 to 500 | 100 to 500 | COc1cc(-c2nc3c(c(=O)[nH]c(=O)n3CC(C)O)n2C)ccc1OCc1ccc(Cl)cc1 (stereo not shown) [Compound 88, 8-(4-((4-chlorobenzyl)oxy)-3-methoxyphenyl)-3-(2-hydroxypropyl)-7-methyl-3,7-dihydro-1H-purine-2,6-dione] |
| 100 to 500 | 500 to 1000 | COc1cc(-c2nc3c(c(=O)[nH]c(=O)n3CC(C)O)n2C)ccc1OCc1ccc(C(F)(F)F)cc1 (stereo not shown) [Compound 89, 3-(2-hydroxypropyl)-8-(3-methoxy-4-((4-(trifluoromethyl)benzyl)oxy)phenyl)-7-methyl-3,7-dihydro-1H-purine-2,6-dione] |
| 500 to 1000 | 100 to 500 | COc1cc(-c2nc3c(c(=O)[nH]c(=O)n3CC(C)O)n2C)ccc1OCc1ccc(C#N)cc1 (stereo not shown) [Compound 90, 4-((4-(3-(2-hydroxypropyl)-7-methyl-2,6-dioxo-2,3,6,7-tetrahydro-1H-purin-8-yl)-2-methoxyphenoxy)methyl)benzonitrile] |
| 100 to 500 | 100 to 500 | CC(O)Cn1c(=O)[nH]c(=O)c2c1nc(-c1ccc(OCc3ccc(F)cc3)c(Cl)c1)n2C (stereo not shown) [Compound 91, 8-(3-chloro-4-((4-fluorobenzyl)oxy)phenyl)-3-(2-hydroxypropyl)-7-methyl-3,7-dihydro-1H-purine-2,6-dione] |
| 1000 to 5000 | 1000 to 5000 | CC(O)Cn1c(=O)[nH]c(=O)c2c1nc(-c1ccc(OCc3ccc(F)c(F)c3)c(F)c1)n2C (stereo not shown) [Compound 92, 8-(4-((3,4-difluorobenzyl)oxy)-3-fluorophenyl)-3-(2-hydroxypropyl)-7-methyl-3,7-dihydro-1H-purine-2,6-dione] |
| 500 to 1000 | 1000 to 5000 | CC(O)Cn1c(=O)[nH]c(=O)c2c1nc(-c1ccc(OCc3ccc(Cl)c(F)c3)c(F)c1)n2C (stereo not shown) [Compound 93, 8-(4-((4-chloro-3-fluorobenzyl)oxy)-3-fluorophenyl)-3-(2-hydroxypropyl)-7-methyl-3,7-dihydro-1H-purine-2,6-dione] |
| 1000 to 5000 | 1000 to 5000 | COc1cc(-c2nc3c(c(=O)[nH]c(=O)n3CC(O)CO)n2C)ccc1OCc1ccc(C)cc1 (stereo not shown) [Compound 94, 3-(2,3-dihydroxypropyl)-8-(3-methoxy-4-((4-methylbenzyl)oxy)phenyl)-7-methyl-3,7-dihydro-1H-purine-2,6-dione] |
| 1000 to 5000 | 1000 to 5000 | Cc1ccc(COc2ccc(-c3nc4c(c(=O)[nH]c(=O)n4CC(O)CO)n3C)cc2F)cc1 (stereo not shown) [Compound 95, 3-(2,3-dihydroxypropyl)-8-(3-fluoro-4-((4-methylbenzyl)oxy)phenyl)-7-methyl-3,7-dihydro-1H-purine-2,6-dione] |
| 100 to 500 | 100 to 500 | Cc1ccc(COc2ccc(-c3nc4c(c(=O)[nH]c(=O)n4CC(O)CF)n3C)cc2F)cc1 (stereo not shown) [Compound 96, 3-(3-fluoro-2-hydroxypropyl)-8-(3-fluoro-4-((4-methylbenzyl)oxy)phenyl)-7-methyl-3,7-dihydro-1H-purine-2,6-dione] |
| 100 to 500 | 100 to 500 | Cc1ccc(COc2ccc(-c3nc4c(c(=O)[nH]c(=O)n4CC(C)CO)n3C)cc2F)cc1 (stereo not shown) [Compound 97, 8-(3-fluoro-4-((4-methylbenzyl)oxy)phenyl)-3-(3-hydroxy-2-methylpropyl)-7-methyl-3,7-dihydro-1H-purine-2,6-dione] |
| 100 to 500 | 100 to 500 | CC(O)Cn1c(=O)[nH]c(=O)c2c1nc(-c1ccc(OCc3ccccc3)c(C(F)(F)F)c1)n2C (stereo not shown) [Compound 98, 8-(4-(benzyloxy)-3-(trifluoromethyl)phenyl)-3-(2-hydroxypropyl)-7-methyl-3,7-dihydro-1H-purine-2,6-dione] |
| 100 to 500 | 100 to 500 | COc1cc(-c2nc3c(c(=O)[nH]c(=O)n3CC(C)O)n2C)ccc1OCc1ccc(F)c(Cl)c1 (stereo not shown) [Compound 99, 8-(4-((3-chloro-4-fluorobenzyl)oxy)-3-methoxyphenyl)-3-(2-hydroxypropyl)-7-methyl-3,7-dihydro-1H-purine-2,6-dione] |
